According to patent US8653048B2 (Sanlugen Pharmatech Ltd., priority 2009, dated 2014):

Columns and labels:
[1] = tested on: NCI-H460: a human lung cancer cell line; assay: MTT analytical method, NCI-H460 cells; type: cell-based; conditions: 72 h
Excerpt: (§1) MTT analytical method was used to test the prodrugs for various tumor cells.
(§2) • 1) Cell lines: NCI-H460, A549, LOVO, HT-29, MDA-MB-231, SGC7901, HepG2 or BEL-7402 cell lines. Culture: adherent culturing in D-MEM (Hyclone, Inc.) containing 10% fetal calf serum. The initial cell concentration was about 3×10^5 /mL. The cell was passaged by 1:3 dilution in every 2-3 days. On the day before the test, the cell was passaged by 1:2 dilution, the cell concentration for the test was 5-10×10^5 /mL. • 2) Dissolution and dilution of compounds: according to the weight and molecular weight of the drugs provided, 100-200 μL of DMSO was added. Then normal saline was added to make the final diluted concentration of the drugs be 5 mM (Note that the final concentration of DMSO should not be more than 10%). • 3) D-MEM or RPMI 1640 cell culture medium, Gibco, Inc. • 4) Fetal calf serum Hyclone, Inc. • 5) Cell dissociation buffer, 0.25% Trypsin+0.02% EDTA. • 6) MTT solution, MTT Powder (Sigma) were dissolved in PBS buffer solution to make a solution of 5 mg/mL. The solution was filtered by a 0.22 μm micropore membrane and stored at −20° C. • 7) PBS buffer solution. • 8) 10% acidified SDS, 0.01N HCl. • 9) Centrifuge tubes, haustorial tubes etc. (BD, Inc.); 96-well plates (Costatr, Inc.) Procedures: • 1) Cell inoculation: Cells grown for 24 hours after passage, which cells were in good growth state, were used. The cells were harvested by the routine method. The cell concentration was adjust with a fresh culture solution to 2×10^5/mL (for adherent cells)-3×10^5/mL (for suspension cells). The adherent cells were inoculated at 100 μL/well and then cultivated in an incubator with 5% CO2 at 37° C. for 24 h. Thereafter the used culture solution was removed and 95 μL/well of fresh culture solution was added. The suspension cells were inoculated at 95 μL/well directly. • 2) Drugs treatment: 9 concentration grades were designed for every drug, and every concentration had 3 wells. The control group had 5 wells. The control group was tested simultaneously in each test. The final concentrations of a drug added were […], and 5 μL normal saline was added to the control group. • 3) Cell culture and detection: the cells were cultured in an incubator with 5% CO2 at 37° C. for 72 h after the drug was added, then 10 μL MTT was added to each well and the culture was continued for 4 h. 100 μL of 10% SDS (containing 0.01N HCl) was added to each well. After 24 h, the absorbance (A) of each well was determined by Bio-rad 680 ELISA with the detection wavelength of 570 nm and the reference wavelength of 630 nm. Calculation:
(§3) First, the absorbance (A) of each well was averaged (removing any data with big difference). […] A0 was the mean absorbance of the control wells. The effect curve of the drug concentration was drawn using EXCEL software and the drug concentration for 50% cell survival was calculated according to an appropriate computing methods.

[2] = tested on: A549: a human lung cancer cell line; assay: MTT analytical method, A549 cells; type: cell-based; conditions: 72 h
Excerpt: as §1, §2, §3

[3] = Stability in human blood plasma (HPLC); type: in vitro ADME; conditions: for stability in blood plasma (in words): 0-12 h; for chromatography peak area of drug / Degrade %: plasma
Procedure: Isopropanol (1 mL) was then added into the blood sample and vortexed for 30 s and kept still for 5 min. 2.5 ml of EtOAc was added and votexed and centrifuged at 4000 rpm for 15 minutes. The supernatant was taken and dried by blowing in nitrogen. The dried sample was redissolved in 200 μL HPLC mobile phase solution. 20 μL sample was loaded to the HPLC.
The samples were processed using the standard method.

[4] = tested on: HepG2: a human liver cancer cell line; assay: MTT analytical method, HepG2 cells; type: cell-based; conditions: 72 h
Excerpt: as §1, §2, §3

[5] = In vitro stability in simulated intestinal fluid (HPLC); type: physicochemical; conditions: for stability in simulated intestinal fluid (in words): 0-24 h; for Degrade % / HPLC peak area of drug: simulated intestinal fluid
[6] = tested on: NCI-H460 tumor transplanted in nude mice; assay: NCI-H460 tumor transplanted in nude mice, intravenous administration; conditions: for weight loss rate: NCI-H460 nude mice; for effect on NCI-H460 tumor (growth curve and tumor weight), in words: i.v. every three days x4, SL-01 5, 10, 20 mg/Kg, GEM 10 mg/Kg
Procedure: The highest concentrations of both were 10 mg/mL and 240 mg/mL, respectively. […] Assuming that each mouse weighed 20 g and 0.1 mL of drug solution was administered, then the dosage of SL-01 at 5, 10 or 20 mg/kg needed drug concentrations of 1, 2, 4 mg/mL, respectively.
Cell lines and cultivation: the NCI-H460 lung cancer cell line, the HepG2 liver cancer cell line, or the HT29 colon cancer cell line were cultured by adherent culturing in D-MEM (Gibco, Inc.) containing 10% fetal calf serum. These cells were passaged once by a dilution of 1:3 in every 2-3 days. The cells were collected when they were passaged to grow into 25 of 10 cm culture dishes.
3.1 The establishment of a model of transplanted tumors in nude mice: Well-grown NCI-H460 cells, HT29 cells or HepG2 cells were collected (25 of 10 cm culture dishes). The cell concentration was adjusted to 1.5×10^7/mL with serum-free DMEM. 200 μL cell suspension was inoculated into the right back of 6 weeks old male BALB/C nude mice by subcutaneous injection using a 1 mL syringe.
The treatment starting day was the first day (d0). The corresponding drugs were injected intravenously to the tail vein every three days. The administration volume to each mouse was adjusted according to its body weight. A total of four administrations (d0, d3, d6, d9) were applied. The long and short tumor pathlines were measured with a slide caliper at the beginning of the administration and every 3 days thereafter. The tumor volume V was calculated (V=½ab^2, a is the tumor long pathline, b is the tumor short pathline). The growth curve was drawn with the time as the horizontal axis, and tumor volume as the vertical axis. The experiment was terminated when the tumor size of the control group reached 3000 mm^3. Blood samples were taken from the eyeball and thereafter the nude mice were euthanized by back neck vertebra cervical dislocation. The tumor tissues were removed and weighed. The inhibition rate of tumor growth was calculated.

[7] = tested on: Bel7402: a human liver cancer cell line; assay: MTT analytical method, Bel7402 cells; type: cell-based; conditions: Bel-7402, 72 h
Excerpt: as §1, §2, §3

[8] = tested on: MDA-MB-231: a human breast cancer line; assay: MTT analytical method, MDA-MB-231 cells; type: cell-based; conditions: MDA-MB-231, MTT, 72 h
Excerpt: as §1, §2, §3

[9] = tested on: HepG2 tumor transplanted in nude mice; assay: HepG2 tumor transplanted in nude mice, intravenous administration; type: in vivo, BALB/C nude mice; conditions: for weight loss rate: HepG2 nude mice; for effect on growth of HepG2 tumor (growth curve and tumor weight), in words: i.v., SL-01 10, 20, 40 mg/kg, Gem group
Procedure: 1. […] The drugs were packaged and stored at −20° C.
The treatment starting day was the first day (d0). […] The tumor tissues were removed and weighed. The inhibition rate of tumor growth was calculated.
4.2 The low, middle and high dosage of SL-01 in the treatment for HepG2 liver cancer cell line tumor growth transplanted in nude mice are 10, 20 and 40 mg/kg, respectively.

[10] = tested on: SGC7901: a human gastric cancer line; assay: MTT analytical method, SGC7901 cells; type: cell-based; conditions: SGC-7901, 72 h
Excerpt: as §1, §2, §3

[11] = Dissolution in water (description of material); type: physicochemical; conditions: white powder

Row | SMILES | IC50 [1] | IC50 [2] | stability in blood plasma (in words) [3] | chromatography peak area of drug ([3]; 0 min) | chromatography peak area of drug ([3]; 1 h) | chromatography peak area of drug ([3]; 2 h) | chromatography peak area of drug ([3]; 4 h) | chromatography peak area of drug ([3]; 6 h) | chromatography peak area of drug ([3]; 8 h) | chromatography peak area of drug ([3]; 12 h) | IC50 [4] | stability in simulated intestinal fluid (in words) [5] | HPLC peak area of drug ([5]; 0 min) | HPLC peak area of drug ([5]; 1 h) | HPLC peak area of drug ([5]; 2 h) | HPLC peak area of drug ([5]; 4 h) | HPLC peak area of drug ([5]; 6 h) | HPLC peak area of drug ([5]; 8 h) | HPLC peak area of drug ([5]; 12 h) | HPLC peak area of drug ([5]; 24 h) | also measured
1 | Nc1ccn([C@@H]2O[C@H](CO)[C@@H](O)C2(F)F)c(=O)n1 [Gemcitabine, gemcitabine, reference compound] | < 1 µM | < 2 µM | stable | 562562.938 | 592859.625 | 466418.094 | 483743.594 | 552648.313 | 540059.125 | 544300.688 | < 1 µM | degraded | 643704.938 | 465528.594 | 410685.313 | 257604.125 | 197106.406 | 149816.906 | 9873.897 | 5571.352 | Degrade % ([5]; 0 min): 0%; Degrade % ([5]; 1 h): 27.67%; Degrade % ([5]; 2 h): 36.2%; Degrade % ([5]; 4 h): 59.98%; Degrade % ([5]; 6 h): 69.37%; Degrade % ([5]; 8 h): 76.72%; Degrade % ([5]; 12 h): 98.46%; Degrade % ([5]; 24 h): 99.13%; weight loss rate ([6]; gemcitabine positive control 10 mg/Kg i.v.): 14%; effect on NCI-H460 tumor (growth curve and tumor weight), in words [6]: inhibitory effect; IC50 [7]: 4 µM; IC50 [8]: < 1 µM; weight loss rate ([9]; gemcitabine positive control): 9%; effect on growth of HepG2 tumor (growth curve and tumor weight), in words [9]: neither SL-01 nor gemcitabine has shown an obvious inhibitory effect; IC50 [10]: > 16 µM; solubility in water, in words [11]: can be easily dissolved in water
2 | CCCCCCCCCCCCOC(=O)c1nccnc1C(=O)Nc1ccn([C@@H]2O[C@H](CO)[C@@H](O)C2(F)F)c(=O)n1 [Compound 4, Dodecyl-3-((1-((2R,4R,5R)-3,3-difluoro-4-hydroxy-5-(hydroxymethyl)-tetrahydrofuran-2-yl)-2-oxo-1,2-dihydropyrimidin-4-yl)carbamoyl)pyrazine-2-carboxylate] | < 2 µM | < 2 µM | degradable | 336275.344 | 326948.219 | 261917.094 | 178242.781 | 59465.750 | 43894.633 | 12894.514 | 6 µM | stable | 288987.906 | 231129.797 | 196319.828 | 245622.906 | 247957.219 | 239958.297 | 247782.500 | 256782.600 | Degrade % ([3]; 0 min): 0%; Degrade % ([3]; 1 h): 2.77%; Degrade % ([3]; 2 h): 22.11%; Degrade % ([3]; 4 h): 46.99%; Degrade % ([3]; 6 h): 82.31%; Degrade % ([3]; 8 h): 89.64%; Degrade % ([3]; 12 h): 96.17%; weight loss rate ([6]; SL-01 high dose group 20 mg/Kg i.v.): 7%; effect on NCI-H460 tumor (growth curve and tumor weight), in words [6]: inhibitory effect; IC50 [7]: 8 µM; IC50 [8]: > 16 µM; weight loss rate ([9]; SL-01 high dosage 40 mg/kg i.v.): 3.5%; weight loss rate ([9]; SL-01 low dosage 10 mg/kg i.v.): 11.6%; weight loss rate ([9]; SL-01 middle dosage 20 mg/kg i.v.): 14%; effect on growth of HepG2 tumor (growth curve and tumor weight), in words [9]: neither SL-01 nor gemcitabine has shown an obvious inhibitory effect; IC50 [10]: > 16 µM; solubility in water, in words [11]: cannot be dissolved in water well
